Laboratory results reported in ChEMBL document CHEMBL1129711, “Nonpeptide GPIIb/IIIa inhibitors. 10. Centrally constrained alpha-sulfonamides are potent inhibitors of platelet aggregation” (Bioorg Med Chem Lett, 1996).

What was measured:
Homo sapiens = organism: Homo sapiens; assay: In vitro inhibition of ADP-induced human platelet aggregation.; type: functional
[1] = target: T1, Integrin alpha-IIb/beta-3 (Homo sapiens, UniProt P05106+P08514); assay: Binding affinity against alpha IIb beta-3 integrin in the presence of L-736622.; type: protein-complex assay
Target sequence in this assay (P05106 27-788 limits assumed): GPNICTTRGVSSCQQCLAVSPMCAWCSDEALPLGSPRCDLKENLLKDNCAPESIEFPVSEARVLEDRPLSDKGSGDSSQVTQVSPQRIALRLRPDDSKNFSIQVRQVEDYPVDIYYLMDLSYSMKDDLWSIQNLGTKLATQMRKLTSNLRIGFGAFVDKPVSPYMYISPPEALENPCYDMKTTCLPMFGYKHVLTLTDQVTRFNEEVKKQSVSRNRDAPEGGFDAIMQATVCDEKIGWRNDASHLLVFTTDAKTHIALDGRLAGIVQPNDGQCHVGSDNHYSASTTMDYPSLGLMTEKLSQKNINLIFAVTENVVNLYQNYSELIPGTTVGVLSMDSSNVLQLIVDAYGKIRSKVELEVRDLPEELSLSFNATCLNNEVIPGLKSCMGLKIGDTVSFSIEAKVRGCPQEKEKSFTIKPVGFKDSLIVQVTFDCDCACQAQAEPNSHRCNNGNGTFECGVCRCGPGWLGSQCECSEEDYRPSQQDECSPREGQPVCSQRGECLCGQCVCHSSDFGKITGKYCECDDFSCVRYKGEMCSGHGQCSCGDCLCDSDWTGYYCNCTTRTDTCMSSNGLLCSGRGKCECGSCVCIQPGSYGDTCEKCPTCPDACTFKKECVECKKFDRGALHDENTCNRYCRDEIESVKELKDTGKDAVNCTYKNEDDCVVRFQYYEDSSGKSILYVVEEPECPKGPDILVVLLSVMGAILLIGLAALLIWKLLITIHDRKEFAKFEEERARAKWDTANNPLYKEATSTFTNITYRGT
Target sequence in this assay (P08514 32-887 limits assumed): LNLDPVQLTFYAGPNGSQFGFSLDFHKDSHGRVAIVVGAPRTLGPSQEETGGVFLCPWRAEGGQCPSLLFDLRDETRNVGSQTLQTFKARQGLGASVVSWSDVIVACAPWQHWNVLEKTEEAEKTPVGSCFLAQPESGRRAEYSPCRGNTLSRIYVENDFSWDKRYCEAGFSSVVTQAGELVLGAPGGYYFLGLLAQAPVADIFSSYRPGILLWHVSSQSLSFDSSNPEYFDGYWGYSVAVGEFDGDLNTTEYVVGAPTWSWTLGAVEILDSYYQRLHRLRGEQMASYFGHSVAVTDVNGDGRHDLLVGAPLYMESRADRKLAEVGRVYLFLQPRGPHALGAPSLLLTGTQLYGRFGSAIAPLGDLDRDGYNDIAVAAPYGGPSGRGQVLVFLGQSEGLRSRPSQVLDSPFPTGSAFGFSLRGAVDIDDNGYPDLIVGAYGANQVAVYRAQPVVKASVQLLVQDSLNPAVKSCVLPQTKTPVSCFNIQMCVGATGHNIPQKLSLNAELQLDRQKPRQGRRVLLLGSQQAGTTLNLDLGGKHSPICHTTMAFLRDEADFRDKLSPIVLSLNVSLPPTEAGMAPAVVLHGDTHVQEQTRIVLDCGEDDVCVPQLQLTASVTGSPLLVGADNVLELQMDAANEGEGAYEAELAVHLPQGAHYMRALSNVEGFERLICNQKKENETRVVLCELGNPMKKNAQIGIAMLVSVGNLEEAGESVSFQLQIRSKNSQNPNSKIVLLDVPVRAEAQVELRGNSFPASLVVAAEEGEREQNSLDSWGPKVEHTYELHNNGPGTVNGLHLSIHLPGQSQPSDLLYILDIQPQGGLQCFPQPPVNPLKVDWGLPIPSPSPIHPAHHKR
Target sequence in this assay (P08514 891-1039 limits assumed): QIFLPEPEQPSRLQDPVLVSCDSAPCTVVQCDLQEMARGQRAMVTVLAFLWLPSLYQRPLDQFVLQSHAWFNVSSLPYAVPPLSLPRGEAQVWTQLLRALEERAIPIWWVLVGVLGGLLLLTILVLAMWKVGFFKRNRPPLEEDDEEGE

[2] = target: T1, Integrin alpha-IIb/beta-3; assay: Binding affinity against alpha IIb beta-3 integrin by [125I]-L-692,884 displacement.; type: protein-complex assay

Structure (SMILES)	IC50 (Homo sapiens) [nM]	Kd [1] [nM]	ED50 [2] [nM]
CC(C)CS(=O)(=O)N[C@@H](CNC(=O)c1ccc2c(c1)C(=O)N(CCC1CCNCC1)C2)C(=O)O	9	7.5	1.2
CCCCCS(=O)(=O)N[C@@H](CNC(=O)c1ccc2c(c1)C(=O)N(CCC1CCNCC1)C2)C(=O)O	9	7.6	0.88
CCOCCS(=O)(=O)N[C@@H](CNC(=O)c1ccc2c(c1)C(=O)N(CCC1CCNCC1)C2)C(=O)O	8	5.1	1.1
O=C(NCc1ccccc1)N[C@@H](CNC(=O)c1ccc2c(c1)C(=O)N(CCC1CCNCC1)C2)C(=O)O	10	6	1.2
CCCCCC(=O)N[C@@H](CNC(=O)c1ccc2c(c1)C(=O)N(CCC1CCNCC1)C2)C(=O)O	13	6.4	4.2
CCCCS(=O)(=O)N[C@@H](Cc1ccc(OCCCCC2CCNCC2)cc1)C(=O)O [TIROFIBAN]	11	–	0.97
CCCCNS(=O)(=O)N[C@@H](CNC(=O)c1ccc2c(c1)C(=O)N(CCC1CCNCC1)C2)C(=O)O	19	21	2.8
CCCCNC(=O)N[C@@H](CNC(=O)c1ccc2c(c1)C(=O)N(CCC1CCNCC1)C2)C(=O)O	16	6.9	1.4
O=C(O)CCNC(=O)c1ccc2c(c1)C(=O)N(CCC1CCNCC1)C2	–	100	–

The remaining lines, values ahead:

IC50 (Homo sapiens) [nM]	Kd [1] [nM]	ED50 [2] [nM]	Structure (SMILES)
4	12	1.6	O=C(NC[C@H](NS(=O)(=O)Cc1ccccc1)C(=O)O)c1ccc2c(c1)C(=O)N(CCC1CCNCC1)C2
14	8.8	–	CCCCS(=O)(=O)N[C@@H](CNC(=O)c1ccc2c(c1)C(=O)N(CCC1CCNCC1)C2)C(=O)O (stereo in doubt) [listing 1 of 2 here]
7	7.7	0.53	O=C(NC[C@H](NS(=O)(=O)c1cccs1)C(=O)O)c1ccc2c(c1)C(=O)N(CCC1CCNCC1)C2
–	–	5.5	CCCCS(=O)(=O)N[C@@H](CNC(=O)c1ccc2c(c1)C(=O)N(CCC1CCNCC1)C2)C(=O)O (stereo in doubt) [listing 2 of 2 here]
15	6.4	0.83	O=C(NC[C@H](NS(=O)(=O)c1ccccc1C(=O)O)C(=O)O)c1ccc2c(c1)C(=O)N(CCC1CCNCC1)C2
–	–	1.3	CCCCS(=O)(=O)N[C@@H](CNC(=O)c1ccc2c(c1)C(=O)N(CCC1CCNCC1)C2)C(=O)O (stereo in doubt; 13) [listing 1 of 2 here]
15	3.6	0.38	O=C(NC[C@H](NS(=O)(=O)c1cccnc1)C(=O)O)c1ccc2c(c1)C(=O)N(CCC1CCNCC1)C2
8	3.7	0.33	O=C(NC[C@H](NS(=O)(=O)c1ccccc1)C(=O)O)c1ccc2c(c1)C(=O)N(CCC1CCNCC1)C2
–	4.4	–	CCCCS(=O)(=O)N[C@@H](CNC(=O)c1ccc2c(c1)C(=O)N(CCC1CCNCC1)C2)C(=O)O (stereo in doubt; 13) [listing 2 of 2 here]
14	7.4	3.4	CS(=O)(=O)N[C@@H](CNC(=O)c1ccc2c(c1)C(=O)N(CCC1CCNCC1)C2)C(=O)O
7	15	2	O=C(O)c1ccc(S(=O)(=O)N[C@@H](CNC(=O)c2ccc3c(c2)C(=O)N(CCC2CCNCC2)C3)C(=O)O)cc1
